In publication PMC12752627, “Discovery of a Potent and Selective TEAD Degrader with Durable Degradation Activity” (Advanced Science, 2025):
Read-outs that look alike come from different tables or passages of the source.

What was measured:
A172 cells = experiment: DIA proteomics in A172 cells; assay type: cell-based, Homo sapiens; conditions: 100 nM, 24 h
Protocol: Cells were seeded in 6‐well plates at 1 × 10⁶ cells well^−1 and treated with 100 nM KG‐FP‐003 (n = 3). After 24 h incubation, cells were harvested, washed with ice‐cold PBS, and stored at −80 °C. Cell pellets were lysed in 4 volumes of lysis buffer (1% SDS, 1% protease inhibitor cocktail) followed by 3 min sonication on ice. After centrifugation (12 000 g, 10 min, 4 °C), supernatants were collected for BCA protein quantification. Proteins were reduced with 5 mM DTT (56 °C, 30 min), alkylated with 11 mM iodoacetamide (RT, dark, 15 min), and diluted with 200 mM TEAB to reduce urea concentration below 2 M. Trypsin digestion (1:50 enzyme‐to‐protein ratio) was performed at 37 °C overnight followed by additional 4 h digestion. Peptides were desalted using Strata‐X SPE columns. […] MS analysis was performed on a timsTOF Pro mass spectrometer in dia‐PASEF mode (ESI voltage: 1.75 kV; scan range: 300–1500 m z^−1). DIA data were processed using DIA‐NN (v1.8) against the Homo_sapiens_9606_SP_20 231 220.fasta database (20429 entries) with reversed decoys, using trypsin as the cleavage enzyme. Fixed modifications included N‐terminal methionine excision and carbamidomethylation of cysteine, with FDR set at <1%.

TEAD3 = target: T1, TEAD3 (Homo sapiens, UniProt Q99594); experiment: HiBiT degradation assay, HEK293T HiBiT-TEAD3; assay type: cell-based; conditions: 6 h
T1 construct: endogenous in cells; host or cells: HEK293T HiBiT knock-in
T1 sequence (Q99594 whole entry): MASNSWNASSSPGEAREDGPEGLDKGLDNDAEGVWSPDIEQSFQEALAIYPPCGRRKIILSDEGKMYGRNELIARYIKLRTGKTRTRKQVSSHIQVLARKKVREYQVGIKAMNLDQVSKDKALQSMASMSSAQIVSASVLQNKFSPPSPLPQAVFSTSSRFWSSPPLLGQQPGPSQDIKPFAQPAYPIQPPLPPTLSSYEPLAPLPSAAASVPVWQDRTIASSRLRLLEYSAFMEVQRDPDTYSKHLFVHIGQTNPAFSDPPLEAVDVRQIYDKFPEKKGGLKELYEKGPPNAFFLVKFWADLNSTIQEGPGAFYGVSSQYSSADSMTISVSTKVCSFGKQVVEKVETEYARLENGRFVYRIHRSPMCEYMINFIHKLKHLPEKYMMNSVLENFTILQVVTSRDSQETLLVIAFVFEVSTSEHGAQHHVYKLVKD
Protocol: HiBiT cells were inoculated into 96‐well flat‐bottomed tissue culture plates at a density of 50 000 cells per well, followed by adding degraders into the wells using the I‐DOT dispenser. After 6 h of incubation, the cells were lysed and assayed for degradation using the Nano‐Glo HiBiT Lysis Assay System (Promega, #N3030). Luminescence signals were read using an Envision plate reader (Revvity) and the data were analyzed using GraphPad Prism 9.5 software.
The ribonucleoprotein (RNP) complex was prepared by mixing 2 µg of NLS‐Cas9‐EGFP nuclease (Novoprotein, #E379‐01A), 50 pmol of sgRNA, 10 µL of electrotransfer solution, and 50 pmol of designed donor DNA, then incubated for 10 min at room temperature. One million HEK293T cells were resuspended in 10 µL of electrotransfection solution and mixed with 10 µL of the RNP complex. Electroporation was performed using a Celetrix SP100 electroporator at 480 V. After electroporation, the cells were transferred to antibiotic‐free DMEM complete medium for overnight culture. The following day, EGFP‐positive cells were sorted using a Sony MA 900 cell sorter, plated in a 96‐well cell culture plate (Servicebio, #CCP‐96H), and cultured for 4 weeks. After this period, positive clones were screened using the Nano‐Glo HiBiT Lytic Detection system (Promega, #N3030).

MSTO-211H cells = experiment: Cell viability assay (CTG, 72 h) MSTO-211H; assay type: cell-based; conditions: Homo sapiens
Protocol: Cells were seeded at a density of 1000 cells per well in 96‐well flat‐bottomed cell culture plates and cultured overnight at 37 °C with 5% CO2 to allow for cell attachment. The following day, different concentrations of compounds were added using an I‐DOT dispenser. After 72 h, 25 µL of CellTiter‐Meiluncell Luminescent Cell Viability Reagent (Meilunbio, #PWL111‐2) was added and incubated for 15 min at room temperature. Luminescence signals were then measured using an Envision plate reader (Revvity). Data were analyzed using GraphPad Prism 9.5 software.^[ [30] ^]

TEAD1 = target: T2, TEAD1 (Homo sapiens, UniProt P28347+Q96SW2); experiment: Immunoblot of TEAD1 degradation in TEAD1-mNeonGreen fusion NCI-H1299 cells; assay type: cell-based
T2 construct: endogenous in cells; host or cells: NCI-H1299 (TEAD1-mNeonGreen knock-in)
T2 sequence (P28347 whole entry, the tested form may be a part): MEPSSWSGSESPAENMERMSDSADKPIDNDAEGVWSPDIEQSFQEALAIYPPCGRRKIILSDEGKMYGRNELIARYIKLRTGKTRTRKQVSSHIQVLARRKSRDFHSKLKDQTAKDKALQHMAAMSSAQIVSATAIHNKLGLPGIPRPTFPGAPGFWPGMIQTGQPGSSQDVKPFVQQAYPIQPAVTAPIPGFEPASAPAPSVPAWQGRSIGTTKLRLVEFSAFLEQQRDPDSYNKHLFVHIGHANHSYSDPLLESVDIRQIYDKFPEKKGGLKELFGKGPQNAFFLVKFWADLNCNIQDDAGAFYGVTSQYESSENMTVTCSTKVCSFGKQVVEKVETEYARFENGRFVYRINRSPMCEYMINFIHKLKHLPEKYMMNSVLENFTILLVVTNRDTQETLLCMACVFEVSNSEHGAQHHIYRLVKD
T2 sequence (Q96SW2 whole entry, the tested form may be a part): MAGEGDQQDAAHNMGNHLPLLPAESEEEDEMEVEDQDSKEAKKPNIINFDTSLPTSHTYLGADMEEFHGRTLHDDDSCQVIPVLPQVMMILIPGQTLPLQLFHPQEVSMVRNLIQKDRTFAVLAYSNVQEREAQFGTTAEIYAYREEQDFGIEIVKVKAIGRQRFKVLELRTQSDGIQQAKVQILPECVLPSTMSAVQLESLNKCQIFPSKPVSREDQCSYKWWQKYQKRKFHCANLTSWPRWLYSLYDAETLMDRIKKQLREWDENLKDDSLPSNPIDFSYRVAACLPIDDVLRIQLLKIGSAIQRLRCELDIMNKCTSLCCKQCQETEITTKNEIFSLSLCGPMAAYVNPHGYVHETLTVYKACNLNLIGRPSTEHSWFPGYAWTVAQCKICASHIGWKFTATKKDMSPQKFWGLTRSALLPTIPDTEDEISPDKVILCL
T2 sequence (Q16531 2-1140 partner limits assumed): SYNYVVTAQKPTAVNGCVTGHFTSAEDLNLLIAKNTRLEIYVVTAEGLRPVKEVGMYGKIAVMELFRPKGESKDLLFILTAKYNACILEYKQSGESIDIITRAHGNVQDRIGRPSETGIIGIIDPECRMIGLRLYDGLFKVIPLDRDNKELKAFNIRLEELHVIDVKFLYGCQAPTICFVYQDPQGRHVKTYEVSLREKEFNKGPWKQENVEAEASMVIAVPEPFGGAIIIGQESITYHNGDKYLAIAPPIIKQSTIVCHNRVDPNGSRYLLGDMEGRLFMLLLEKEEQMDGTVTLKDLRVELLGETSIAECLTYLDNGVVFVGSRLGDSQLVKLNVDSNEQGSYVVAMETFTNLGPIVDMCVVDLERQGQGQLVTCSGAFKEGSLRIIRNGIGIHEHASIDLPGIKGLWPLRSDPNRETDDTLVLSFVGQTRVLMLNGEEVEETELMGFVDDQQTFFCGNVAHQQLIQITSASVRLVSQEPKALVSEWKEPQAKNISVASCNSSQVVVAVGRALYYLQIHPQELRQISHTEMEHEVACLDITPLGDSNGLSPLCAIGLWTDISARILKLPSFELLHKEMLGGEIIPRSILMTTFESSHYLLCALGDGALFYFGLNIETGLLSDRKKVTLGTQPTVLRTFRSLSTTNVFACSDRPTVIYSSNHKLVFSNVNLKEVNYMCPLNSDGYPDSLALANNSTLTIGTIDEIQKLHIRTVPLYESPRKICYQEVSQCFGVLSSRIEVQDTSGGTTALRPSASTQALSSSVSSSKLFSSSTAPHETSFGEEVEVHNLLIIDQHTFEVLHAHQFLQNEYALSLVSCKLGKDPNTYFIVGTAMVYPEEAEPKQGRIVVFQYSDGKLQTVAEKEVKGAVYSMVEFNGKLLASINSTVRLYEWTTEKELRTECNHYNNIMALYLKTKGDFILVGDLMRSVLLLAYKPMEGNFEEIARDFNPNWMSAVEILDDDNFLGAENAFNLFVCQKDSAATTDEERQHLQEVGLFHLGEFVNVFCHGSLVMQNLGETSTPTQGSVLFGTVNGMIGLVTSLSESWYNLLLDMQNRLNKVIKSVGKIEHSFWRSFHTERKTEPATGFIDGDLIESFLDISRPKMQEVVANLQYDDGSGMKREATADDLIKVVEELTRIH
Protocol: Immunoblotting was carried out as previously described.^[ [29] ^] Cells were seeded in 6‐well plates (Yeasen, #84011ES50) at a density of 1 million cells per well. The following day, cells were treated with compounds at the required concentrations, with the DMSO concentration kept below 0.4‰ to prevent toxic effects on the cells. The collected cell pellets were washed three times with PBS (Meilunbio, #MA0015) and resuspended in 120 µL of RIPA lysis buffer (Meilunbio, #MA0151) containing 1% protease inhibitor (Meilunbio, #MB2678‐2). The cells were then sonicated on ice and centrifuged at 12 000 rpm for 15 min at 4 °C to remove cellular debris. Protein concentrations were determined using the BCA Protein Quantification Kit (Meilunbio, #MA0082‐1). The protein samples were normalized, boiled at 99 °C for 10 min, and then subjected to electrophoresis on a 10% SDS‐PAGE gel. The separated protein bands were transferred to nitrocellulose membranes, blocked with TBST containing 5% BSA, and incubated with the indicated primary antibodies. Finally, the blots were imaged using an Amersham Typhoon NIR imager.

MSTO-211H xenograft = MSTO-211H xenograft efficacy study; assay type: in vivo, BALB/c nude mice; conditions: for Tumor growth inhibition (TGI) rate: MSTO-211H xenograft
Protocol: Animal experiments were conducted by Medsyin (Shanghai) Co., Ltd. The experimental protocol was approved by the IACUC of the company (No.: PZWH‐2025031003) and strictly adhered to the guidelines of the AAALAC. The specific procedures are as follows: 5 × 10^6 MSTO‐211H cells or ES2 cells were suspended in 100 µL of a mixture of PBS and Matrigel and inoculated subcutaneously into the right axilla of 6‐week‐old BALB/c nude mice. Drug administration was initiated on day 7 after cell inoculation (when the average tumor volume was ≈150 mm^3). The experiment was divided into four groups with 6 mice in each group. The specific grouping and administration methods are as follows: control group, KY‐001 group (10 mg kg^−1, p.o.), KG‐FP‐003 (10 mg kg^−1 or 30 mg kg^−1, i.p.). The administration routes included intraperitoneal injection and intragastric administration, once a day for 21 consecutive days. During the experiment, the body weight and tumor volume of the mice were measured twice a week. At the end of the experiment, the mice were sacrificed and tumor tissues were collected.

With CNC(=O)c1cc2c(c(F)c1-c1c(Cl)c(F)cc3c1C[C@@](CN[C@H]1CC[C@H](C(=O)N4CCC(CC5CCN(C(=O)COc6ccc(N7CCC(=O)NC7=O)c(C)c6)CC5)CC4)CC1)(c1ccccc1)O3)[C@@H](O)[C@@H](C)C2 [KG-FP-003] the Proteome-wide selectivity (A172 cells) was “significantly and selectively downregulated TEAD1 protein levels”, the DC50 (TEAD3) was 12 ± 5 nM and the “TEAD3 Dmax” value (TEAD3) was “≈ 90%”. The Dmax (TEAD3; HEK-293T) was 87 ± 9%, the IC50 (MSTO-211H cells; 72 h, 3-day antiproliferation, Figure 3C, read-out: IC50 (nM ± SD), MSTO-211H) was 47 ± 5 nM and the IC50 (MSTO-211H cells; wild-type, Figure 3D, read-out: MSTO-211H: WT IC50) was 47 ± 5 nM. For the same compound, the “Target degradation by immunoblot” value (TEAD1; 10 nM, 6 h, TEAD1-mNeonGreen NCI-H1299 cells) was “significant target degradation”, the “Time to near-complete depletion of TEAD1” value (TEAD1; 100 nM, TEAD1-mNeonGreen fusion NCI-H1299 cells) was at most 2 h and the “Tumor growth inhibition (TGI) rate” value (MSTO-211H xenograft; 10 mg/kg i.p. q.d. 21 days) was 118%. For the same compound, the “Tumor growth inhibition (TGI) rate” value (MSTO-211H xenograft; 30 mg/kg i.p. q.d. 21 days) was 129% and the “Body weight during treatment” value (MSTO-211H xenograft; 10 or 30 mg/kg i.p., 21 days, MSTO-211H xenograft mice) was “stable body weights”.
